Data set [1] in a line: Skin atrophy induction, 18 days daily local treatment, skin fold thickness measurement. The class given is in vivo. As to conditions: rats. An excerpt:
Eine weitere, besonders nach lokaler Therapie, auftretende unerwünschte Wirkung ist die Induktion einer Hautatrophie, die zu einem Verlust der Haut an Dicke, Elastizität und letztlich der mechanischen Belastbarkeit der Haut führt. Das Potential einer Substanz, Hautatrophie zu induzieren, kann in Ratten bestimmt werden. Die Tiere werden dafür 18 Tage täglich lokal in äquieffektiven Dosierungen mit den Testsubstanzen behandelt. Mittels einer Hautfaltendickenmessung läßt sich die Abnahme der Hautdicke über die Behandlungszeit verfolgen.
Im Vergleich zu Clobetasolpropionat, das bei einer Konzentration von 0.01 % (maximale anti-inflammatorische Wirkung wird erreicht) zu einer 65%igen Reduktion der Hautdicke führt, ist bei Beispiel 1 bei einer Konzentration von 0.1 % (maximale anti-inflammatorische Wirkung wird erreicht) nur eine 41 %ige Reduktion festzustellen.
Dieser Vorteil ist auch gegenüber den Substanzen aus der Anmeldung WO03/082827 zu sehen; beispielsweise induziert das Eutomer von Beispiel 36 bereits bei einer Konzentration von 0.06% (maximale anti-inflammatorische Wirkung) eine 60%ige Reduktion der Hautdicke.

The subject of data set [2] is IL-8. The data set can be described thus: Inhibition of LPS-induced IL-8 secretion in THP-1 cells (ELISA of supernatant). In kind it is cell-based, menschlichen. As to conditions: for Efficacy: Efficacy von Dexamethason = 100%; for IC50: Homo sapiens. An excerpt: Die erfindungsgemäßen Verbindungen der allgemeinen Formel (IIa) und (IIb) hemmen die durch Lipopolysaccharid (LPS) induzierte Sekretion des Zytokins IL-8 in der menschlichen Monozytenzelline THP-1.
In general terms: In an ELISA, binding on a coated surface is turned into a signal by an enzyme label.

Data set [3] has as its system Tyrosinaminotranferase (TAT). The experiment in a line: Induction of tyrosine aminotransferase (TAT) in hepatoma cells, 24 h treatment, photometric. The note with it: rat hepatoma cells; for Efficacy: Efficacy von Dexamethason = 100%. In kind it is cell-based, Ratten. An excerpt:
Immunologische Grundlagen, Pharmakologie und Therapierichtlinien, Wissenschafliche Verlagsgesellschaft mbH, Stuttgart, 1998]. Ursache hierfür ist die Stimulation der Gluconeogenese in der Leber durch Induktion der hierfür verantwortlichen Enzyme und durch freie Aminosäuren, die aus dem Abbau von Proteinen (katabole Wirkung der Glucocorticoide) entstehen. Ein Schlüsselenzym des katabolen Stoffwechsels in der Leber ist die Tyrosinaminotranferase (TAT). Die Aktivität dieses Enzyms kann photometrisch aus Zellkulturen von behandelten Ratten-Hepatomzellen bestimmt werden. Die Zellen werden für 24 Stunden mit den Testsubstanzen behandelt und anschließend die TAT-Aktivität gemessen.

On to `Cc1ccc2c(NCC(O)(CC(C)(C)c3cc(F)cc4c3OCC4)C(F)(F)F)cccc2n1` (racemic) [Beispiel 1, 5-[4-(5-Fluor-2,3-dihydrobenzofuran-7-yl)-2-hydroxy-4-methyl-2-trifluormethyl-pentylamino]-2-methylchinolin], for which the “Reduktion der Hautdicke” value in data set [1] (concentration 0.1 % (maximal anti-inflammatory effect reached)) stood at 41%. In data set [2], this compound had an Efficacy of 74% and an IC50 of 5.9 nM. Moreover, in data set [3], a half-maximal effect (EC50) was put at 3.7 nM and the Efficacy is listed as 93%.

For `Cc1ccc2c(NCC(O)(CC(C)(C)c3cc(F)cc4c3OCC4)C(F)(F)F)ccc(F)c2n1` (racemic) [Beispiel 10, 8-Fluor-5-[4-(5-Fluor-2,3-dihydrobenzofuran-7-yl)-2-hydroxy-4-methyl-2-trifluormethyl-pentylamino]-2-methylchinolin], in data set [2], the Efficacy is 86% and the IC50 was 21 nM. In data set [3], this compound gave an EC50 of 10 nM and an Efficacy of 92%.

Turning to `Cn1ccc2c(NCC(O)(CC(C)(C)c3cc(F)cc4c3OCC4)C(F)(F)F)cccc2c1=O` (racemic) [Beispiel 11, 5-[4-(5-Fluor-2,3-dihydrobenzofuran-7-yl)-2-hydroxy-4-methyl-2-trifluormethylpentylamino]-2-methylisochinol-1(2H)-on], in data set [2], the Efficacy is recorded as 61% and it took 8.5 nM to reach half-maximal inhibition (IC50). Further, in data set [3], the midpoint of the response, the EC50, lay at 4 nM and the Efficacy turned out to be 86%.

Turning to `CCC(=O)O[C@]1(C(=O)CCl)[C@@H](C)C[C@H]2[C@@H]3CCC4=CC(=O)C=C[C@]4(C)[C@@]3(F)[C@@H](O)C[C@@]21C` [Clobetasolpropionat, reference compound], the “Reduktion der Hautdicke” value in data set [1] (concentration 0.01 % (maximal anti-inflammatory effect reached)) stood at 65%.

Take `C[C@]12C=CC(=O)C=C1CC[C@@H]1[C@@H]2[C@@H](O)C[C@@]2(C)[C@H]1CC[C@]2(O)C(=O)CO` [Prednisolon, reference compound]: in data set [2], the Efficacy came out at 96% and the IC50 was 13 nM. Moreover, in data set [3], the EC50 stood at 2.6 nM and the Efficacy came out at 103%.

What is called IC50 is the concentration needed to halve the response being measured. A word on the EC50: it is the concentration that produces a half-maximal response. Higher therefore signals lower potency in that assay.
